Reference: ChEMBL document CHEMBL4130394, “Novel 6-substituted benzoyl and non-benzoyl straight chain pyrrolo[2,3-d]pyrimidines as potential antitumor agents with multitargeted inhibition of TS, GARFTase and AICARFTase” (Eur J Med Chem, 2017)
Each block holds one compound with its values, some of them ahead of it. Activity calls are given as the source filed them. The calls are words filed in the database; no cut-off is given here.

Experiments:
[1] = biological target: T1, Bifunctional purine biosynthesis protein ATIC (Homo sapiens, UniProt P31939); assay: Inhibition of recombinant human AICARFTase using AICAR as substrate incubated at 37 degC for 30 mins measured after overnight incubation at 4 degC
Target sequence in this assay (P31939 whole entry): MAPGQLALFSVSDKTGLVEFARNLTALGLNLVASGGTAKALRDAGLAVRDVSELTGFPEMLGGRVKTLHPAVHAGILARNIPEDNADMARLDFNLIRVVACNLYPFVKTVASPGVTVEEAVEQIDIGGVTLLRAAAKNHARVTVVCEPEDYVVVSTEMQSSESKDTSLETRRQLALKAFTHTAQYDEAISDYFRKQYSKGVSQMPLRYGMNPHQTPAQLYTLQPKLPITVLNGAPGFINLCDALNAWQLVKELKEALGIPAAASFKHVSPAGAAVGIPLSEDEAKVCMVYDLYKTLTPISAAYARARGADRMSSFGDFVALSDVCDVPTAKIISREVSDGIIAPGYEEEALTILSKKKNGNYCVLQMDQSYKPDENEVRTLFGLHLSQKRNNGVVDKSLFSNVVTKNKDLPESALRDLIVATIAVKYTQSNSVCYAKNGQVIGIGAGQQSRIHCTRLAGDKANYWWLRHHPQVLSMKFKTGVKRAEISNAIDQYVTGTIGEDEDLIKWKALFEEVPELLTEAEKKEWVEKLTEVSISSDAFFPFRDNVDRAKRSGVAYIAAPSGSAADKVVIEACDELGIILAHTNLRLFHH

KB [2] = assay: Cell cycle arrest in human KB cells assessed as accumulation at G2 phase at 5 uM after 96 hrs by propidium iodide staining based flow cytometry (reference value: 9.59%); type: functional
KB [3] = assay: Cell cycle arrest in human KB cells assessed as accumulation at G1 phase at 5 uM after 96 hrs by propidium iodide staining based flow cytometry (reference value: 54.75%); type: functional
KB [4] = assay: Cell cycle arrest in human KB cells assessed as accumulation at S phase at 5 uM after 96 hrs by propidium iodide staining based flow cytometry (reference value: 35.66%); type: functional
KB [5] = assay: Cell cycle arrest in human KB cells assessed as accumulation at G2 phase at 10 uM after 96 hrs by propidium iodide staining based flow cytometry (reference value: 9.59%); type: functional
KB [6] = assay: Induction of apoptosis in human KB cells assessed as necrotic cells at 10 uM after 48 hrs by Annexin V-FITC/propidium iodide staining based flow cytometry (reference value: 3%); type: functional
KB [7] = assay: Cell cycle arrest in human KB cells assessed as accumulation at S phase at 10 uM after 96 hrs by propidium iodide staining based flow cytometry (reference value: 35.66%); type: functional
KB [8] = assay: Cell cycle arrest in human KB cells assessed as accumulation at G1 phase at 10 uM after 96 hrs by propidium iodide staining based flow cytometry (reference value: 54.75%); type: functional
KB [9] = assay: Induction of apoptosis in human KB cells assessed as live cells at 10 uM after 48 hrs by Annexin V-FITC/propidium iodide staining based flow cytometry (reference value: 74.6%); type: functional
KB [10] = assay: Induction of apoptosis in human KB cells assessed as early apoptotic cells at 10 uM after 48 hrs by Annexin V-FITC/propidium iodide staining based flow cytometry (reference value: 16.9%); type: functional
SW-620 = assay: Antiproliferative activity against human SW620 cells in folate free medium after 72 hrs in presence of leucovorin by MTT assay; type: functional, cell-based; conditions: SW-620, 72 h
KB [11] = assay: Induction of apoptosis in human KB cells assessed as late apoptotic cells at 10 uM after 48 hrs by Annexin V-FITC/propidium iodide staining based flow cytometry (reference value: 5.5%); type: functional
MCF7 = assay: Antiproliferative activity against human MCF7 cells in folate free medium after 72 hrs in presence of leucovorin by MTT assay; type: functional, cell-based; conditions: MCF7, 72 h
[12] = biological target: T1, Bifunctional purine biosynthesis protein ATIC; assay: Inhibition of AICARFTase in human KB cells assessed as reduction in cell proliferation up to 1 uM after 72 hrs in presence of excess of AICA by MTT assay; type: cell-based
Target sequence in this assay (P31939 whole entry, looked up): as the sequence (P31939 whole entry) above

[13] = biological target: T2, Thymidylate synthase/AICAR transformylase (Homo sapiens) (UniProt P04818+P31939); assay: Inhibition of TS/AICARFTase in human KB cells assessed as reduction in cell proliferation up to 1 uM after 72 hrs in presence of excess of thymidine and AICA by MTT assay; type: cell-based
[14] = biological target: T3, Thymidylate synthase/GAR transformylase/AICAR transformylase (Homo sapiens, UniProt P04818+P31939+P22102); assay: Inhibition of TS/AICARFTase/GARFTase in human KB cells assessed as reduction in cell proliferation in folate free medium after 72 hrs in presence of leucovorin by MTT assay; type: cell-based
[15] = biological target: T3, Thymidylate synthase/GAR transformylase/AICAR transformylase; assay: Inhibition of TS/AICARFTase/GARFTase in human KB cells assessed as reduction in cell proliferation up to 1 uM after 72 hrs in presence of excess of thymidine and adenosine by MTT assay; type: cell-based
[16] = biological target: Thymidylate synthase (Homo sapiens) (UniProt P04818); assay: Inhibition of thymidylate synthase in human KB cells assessed as reduction in cell proliferation up to 1 uM after 72 hrs in presence of excess of thymidine by MTT assay; type: cell-based
[17] = biological target: GAR transformylase/AICAR transformylase (Homo sapiens) (UniProt P31939+P22102); assay: Inhibition of AICARFTase/GARFTase in human KB cells assessed as reduction in cell proliferation up to 1 uM after 72 hrs in presence of excess of adenosine by MTT assay; type: cell-based
KB [18] = assay: Cell cycle arrest in human KB cells assessed as accumulation at S phase at 1 uM after 96 hrs by propidium iodide staining based flow cytometry (reference value: 35.66%); type: functional
KB [19] = assay: Induction of apoptosis in human KB cells assessed as live cells at 1 uM after 48 hrs by Annexin V-FITC/propidium iodide staining based flow cytometry (reference value: 74.6%); type: functional
KB [20] = assay: Cell cycle arrest in human KB cells assessed as accumulation at G1 phase at 1 uM after 96 hrs by propidium iodide staining based flow cytometry (reference value: 54.75%); type: functional
[21] = biological target: T2, Thymidylate synthase/AICAR transformylase (Homo sapiens); assay: Inhibition of TS/AICARFTase in human KB cells assessed as reduction in cell proliferation at 1 to 10 nM after 72 hrs in presence of excess of thymidine and AICA by MTT assay; type: cell-based
KB [22] = assay: Induction of apoptosis in human KB cells assessed as late apoptotic cells at 1 uM after 48 hrs by Annexin V-FITC/propidium iodide staining based flow cytometry (reference value: 5.5%); type: functional
KB [23] = assay: Cell cycle arrest in human KB cells assessed as accumulation at G2 phase at 1 uM after 96 hrs by propidium iodide staining based flow cytometry (reference value: 9.59%); type: functional
KB [24] = assay: Induction of apoptosis in human KB cells assessed as necrotic cells at 1 uM after 48 hrs by Annexin V-FITC/propidium iodide staining based flow cytometry (reference value: 3%); type: functional
KB [25] = assay: Inhibition of colony formation in human KB cells at 100 nM after 10 to 14 days by methylene blue staining based assay relative to control; type: functional
KB [26] = assay: Induction of apoptosis in human KB cells assessed as early apoptotic cells at 1 uM after 48 hrs by Annexin V-FITC/propidium iodide staining based flow cytometry (reference value: 16.9%); type: functional
[27] = biological target: T1, Bifunctional purine biosynthesis protein ATIC; assay: Inhibition of AICARFTase in human KB cells assessed as reduction in cell proliferation at 1 to 10 nM after 72 hrs in presence of excess of AICA by MTT assay; type: cell-based
Target sequence in this assay (P31939 whole entry, looked up): as the sequence (P31939 whole entry) above

KB [28] = assay: Potency index, ratio of methotrexate IC50 to compound IC50 for human KB cells; type: functional
KB [29] = assay: Potency index, ratio of pemetrexed IC50 to compound IC50 for human KB cells; type: functional

T2 sequence (P04818 whole entry, looked up): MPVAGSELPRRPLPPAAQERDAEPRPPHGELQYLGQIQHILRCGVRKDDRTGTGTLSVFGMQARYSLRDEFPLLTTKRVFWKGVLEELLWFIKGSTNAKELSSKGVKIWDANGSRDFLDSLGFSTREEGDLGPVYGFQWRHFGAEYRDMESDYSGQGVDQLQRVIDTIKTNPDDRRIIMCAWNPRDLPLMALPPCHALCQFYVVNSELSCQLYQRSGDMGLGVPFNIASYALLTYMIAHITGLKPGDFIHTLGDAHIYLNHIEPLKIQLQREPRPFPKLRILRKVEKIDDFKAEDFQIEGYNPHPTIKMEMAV
T2 sequence (P31939 whole entry, looked up): as the sequence (P31939 whole entry) above
Sequence of Thymidylate synthase (Homo sapiens) (P04818 2-313 limits assumed): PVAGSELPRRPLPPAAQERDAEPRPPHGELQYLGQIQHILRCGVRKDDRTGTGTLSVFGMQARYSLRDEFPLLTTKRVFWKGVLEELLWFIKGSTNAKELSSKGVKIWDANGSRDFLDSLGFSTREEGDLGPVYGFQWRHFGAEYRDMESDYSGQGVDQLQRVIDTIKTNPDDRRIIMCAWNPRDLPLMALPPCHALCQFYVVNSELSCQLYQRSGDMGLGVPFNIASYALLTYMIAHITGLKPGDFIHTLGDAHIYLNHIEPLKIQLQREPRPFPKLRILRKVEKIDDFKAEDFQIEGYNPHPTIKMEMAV
Sequence of GAR transformylase/AICAR transformylase (Homo sapiens) (P22102 whole entry, looked up): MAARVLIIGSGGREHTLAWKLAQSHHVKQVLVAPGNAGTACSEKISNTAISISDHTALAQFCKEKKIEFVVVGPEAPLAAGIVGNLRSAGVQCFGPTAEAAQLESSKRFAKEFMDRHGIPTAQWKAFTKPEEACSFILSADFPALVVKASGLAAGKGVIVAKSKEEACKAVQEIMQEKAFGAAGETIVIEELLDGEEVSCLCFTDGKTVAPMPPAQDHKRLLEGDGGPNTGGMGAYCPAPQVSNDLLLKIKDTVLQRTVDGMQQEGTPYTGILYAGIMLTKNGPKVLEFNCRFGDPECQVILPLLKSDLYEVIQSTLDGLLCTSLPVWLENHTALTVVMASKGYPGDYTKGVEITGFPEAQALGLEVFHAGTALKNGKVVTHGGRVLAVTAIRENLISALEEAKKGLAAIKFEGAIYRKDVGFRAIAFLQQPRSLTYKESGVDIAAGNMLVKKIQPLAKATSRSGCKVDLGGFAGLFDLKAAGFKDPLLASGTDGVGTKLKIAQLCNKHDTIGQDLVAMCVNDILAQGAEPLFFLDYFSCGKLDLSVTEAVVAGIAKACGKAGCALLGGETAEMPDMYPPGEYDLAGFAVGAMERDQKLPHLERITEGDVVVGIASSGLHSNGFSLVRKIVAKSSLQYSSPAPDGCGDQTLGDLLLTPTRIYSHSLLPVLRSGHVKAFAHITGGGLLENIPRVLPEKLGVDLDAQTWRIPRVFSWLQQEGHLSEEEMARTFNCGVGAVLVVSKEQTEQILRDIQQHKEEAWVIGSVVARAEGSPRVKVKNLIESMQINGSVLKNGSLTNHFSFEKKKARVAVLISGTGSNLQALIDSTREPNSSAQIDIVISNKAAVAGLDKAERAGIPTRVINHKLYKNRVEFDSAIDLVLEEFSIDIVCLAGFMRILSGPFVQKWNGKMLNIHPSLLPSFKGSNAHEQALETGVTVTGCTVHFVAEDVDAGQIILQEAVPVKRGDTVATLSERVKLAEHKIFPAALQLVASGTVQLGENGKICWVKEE
Sequence of GAR transformylase/AICAR transformylase (Homo sapiens) (P31939 whole entry, looked up): as the sequence (P31939 whole entry) above
T3 sequence (P04818 whole entry, looked up): as the sequence (P04818 whole entry, looked up) above
T3 sequence (P22102 whole entry, looked up): as the sequence (P22102 whole entry, looked up) above
T3 sequence (P31939 whole entry, looked up): as the sequence (P31939 whole entry) above

Ki [1]: 8 nM
Compound: Nc1nc2ccc(S(=O)(=O)Nc3ccc(C(=O)N[C@@H](CCC(=O)O)C(=O)O)cc3)cc2c(=O)[nH]1

Compound: COc1cc([C@@H]2c3cc4c(cc3[C@@H](O[C@@H]3O[C@@H]5CO[C@@H](C)O[C@H]5[C@H](O)[C@H]3O)[C@H]3COC(=O)[C@H]23)OCO4)cc(OC)c1O [ETOPOSIDE]
Activity (KB [2]): 3.19%
Activity (KB [3]): 96.81%
Activity (KB [4]): 0%

IC50 (SW-620): 90 nM
IC50 (MCF7): 650 nM
Compound: Nc1nc2[nH]cc(CCc3ccc(C(=O)N[C@@H](CCC(=O)O)C(=O)O)cc3)c2c(=O)[nH]1 [PEMETREXED]
Activity (KB [5]): 0%
Activity (KB [6]): 1%
Activity (KB [7]): 38.05%
Activity (KB [8]): 61.95%
Activity (KB [9]): 10.2%
Activity (KB [10]): 67%
Activity (KB [11]): 21.8%

inhibition [12]: Active
inhibition [13]: Active
IC50 [14]: 1.4 ×10⁻⁴ microM
inhibition [15]: inactive
inhibition [16]: inactive
inhibition [17]: inactive
IC50 (SW-620): 563 nM
IC50 (MCF7): 1080 nM
Compound: Nc1nc2[nH]c(CC(=O)NCCCCCC(=O)N[C@@H](CCC(=O)O)C(=O)O)cc2c(=O)[nH]1

IC50 [14]: 0.092 µM
IC50 (SW-620): 1100 nM
IC50 (MCF7): 2380 nM
Compound: Nc1nc2[nH]c(CC(=O)NCCC(=O)N[C@@H](CCC(=O)O)C(=O)O)cc2c(=O)[nH]1

inhibition [21]: Active
IC50 [14]: 7.5 ×10⁻³ microM
inhibition [27]: Active
IC50 (SW-620): 977 nM
IC50 (MCF7): 1130 nM
Compound: Nc1nc2[nH]c(CC(=O)Nc3ccc(C(=O)N[C@@H](CCC(=O)O)C(=O)O)cc3)cc2c(=O)[nH]1
Activity (KB [18]): 68.62%
Activity (KB [19]): 55.4%
Activity (KB [20]): 31.38%
Activity (KB [22]): 7.1%
Activity (KB [23]): 0%
Activity (KB [24]): 1.3%
inhibition at 0.1 µM (KB [25]): > 80%
Activity (KB [26]): 36.2%

IC50 (SW-620): 22 nM
IC50 (MCF7): 97 nM
Compound: CN(Cc1cnc2nc(N)nc(N)c2n1)c1ccc(C(=O)N[C@@H](CCC(=O)O)C(=O)O)cc1 [METHOTREXATE]

inhibition [12]: Active
inhibition [13]: Active
IC50 [14]: 7.8 ×10⁻⁵ uM
inhibition [15]: inactive
inhibition [16]: inactive
inhibition [17]: inactive
IC50 (SW-620): 786 nM
IC50 (MCF7): 913 nM
Compound: Nc1nc2[nH]c(CC(=O)NCC(=O)N[C@@H](CCC(=O)O)C(=O)O)cc2c(=O)[nH]1
Activity (KB [18]): 44.96%
Activity (KB [19]): 57.9%
Activity (KB [20]): 52.6%
Activity (KB [22]): 6.4%
Ratio IC50 (KB [28]): 140
Activity (KB [23]): 2.43%
Activity (KB [24]): 0.3%
inhibition at 0.1 µM (KB [25]): > 90%
Activity (KB [26]): 35.4%
Ratio IC50 (KB [29]): 1000

IC50 [14]: 0.043 µM
IC50 (SW-620): 1140 nM
IC50 (MCF7): 3810 nM
Compound: Nc1nc2[nH]c(CC(=O)NCCCCC(=O)N[C@@H](CCC(=O)O)C(=O)O)cc2c(=O)[nH]1

IC50 [14]: 0.107 µM
IC50 (SW-620): 948 nM
IC50 (MCF7): 3640 nM
Compound: Nc1nc2[nH]c(CC(=O)NCCCC(=O)N[C@@H](CCC(=O)O)C(=O)O)cc2c(=O)[nH]1
